Laboratory results reported in US4840966A, “Method of treating hypertension” (Mitsui Norin Co., Ltd., priority 1987, dated 1989).
Where two headings read alike, the source gives them in different places.

Assays:
[1] = target: T1, ACE (Angiotensin I converting enzyme) (Sus scrofa, UniProt F1RRW5); test: Inhibition of ACE (Hip-His-Leu substrate, O-phthal aldehyde fluorescence); type: biochemical, pig
T1 construct: the ACE obtained from renal cortex of pig; from tissue; host or cells: renal cortex of pig
T1 sequence (F1RRW5 34-1309): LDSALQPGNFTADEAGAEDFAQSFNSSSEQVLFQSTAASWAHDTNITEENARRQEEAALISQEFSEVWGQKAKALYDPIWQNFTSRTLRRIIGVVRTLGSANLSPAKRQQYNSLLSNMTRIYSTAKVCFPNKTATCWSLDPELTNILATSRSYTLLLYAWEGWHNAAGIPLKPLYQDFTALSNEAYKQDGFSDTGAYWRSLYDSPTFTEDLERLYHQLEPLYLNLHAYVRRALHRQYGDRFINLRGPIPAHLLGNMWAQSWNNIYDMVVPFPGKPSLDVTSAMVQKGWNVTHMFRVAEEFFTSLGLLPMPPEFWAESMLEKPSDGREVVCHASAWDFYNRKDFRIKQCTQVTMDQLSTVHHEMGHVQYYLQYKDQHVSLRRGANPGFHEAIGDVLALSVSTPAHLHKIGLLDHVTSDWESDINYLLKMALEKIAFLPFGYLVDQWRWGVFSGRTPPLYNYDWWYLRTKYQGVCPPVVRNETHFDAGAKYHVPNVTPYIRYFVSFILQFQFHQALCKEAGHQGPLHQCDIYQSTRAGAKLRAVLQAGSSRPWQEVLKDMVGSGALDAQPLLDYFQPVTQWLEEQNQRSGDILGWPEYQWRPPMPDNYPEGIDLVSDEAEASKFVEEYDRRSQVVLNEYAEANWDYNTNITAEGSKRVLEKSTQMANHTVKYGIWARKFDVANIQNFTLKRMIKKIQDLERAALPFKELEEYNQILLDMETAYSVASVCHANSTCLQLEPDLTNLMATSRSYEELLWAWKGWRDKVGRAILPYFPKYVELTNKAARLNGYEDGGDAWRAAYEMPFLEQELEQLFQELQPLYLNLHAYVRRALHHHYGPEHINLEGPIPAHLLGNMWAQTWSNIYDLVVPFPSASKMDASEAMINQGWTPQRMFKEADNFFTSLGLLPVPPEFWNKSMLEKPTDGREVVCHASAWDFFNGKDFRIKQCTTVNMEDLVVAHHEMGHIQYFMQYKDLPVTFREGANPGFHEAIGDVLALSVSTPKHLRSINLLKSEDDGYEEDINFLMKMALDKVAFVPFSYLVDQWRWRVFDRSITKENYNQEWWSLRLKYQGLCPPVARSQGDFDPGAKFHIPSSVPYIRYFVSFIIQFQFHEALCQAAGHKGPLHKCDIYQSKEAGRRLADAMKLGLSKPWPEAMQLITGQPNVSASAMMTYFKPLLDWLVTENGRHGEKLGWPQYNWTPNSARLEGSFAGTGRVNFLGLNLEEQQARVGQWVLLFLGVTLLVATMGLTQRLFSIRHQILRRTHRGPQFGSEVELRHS
Source text: The activity of ACE inhibition was expressed by the equation
in which S was the intensity of the fluorescence in the above described procedure with the sample solution, A was the value of the blank test by replacing the sample solution with the same volume of water and B was the value obtained by replacing the enzyme solution with the same volume of pure water.

carboxypeptidase A = target: T2, carboxypeptidase A (Bos taurus, UniProt P00730); test: Inhibition of carboxypeptidase A; type: biochemical
T2 sequence (P00730 111-419): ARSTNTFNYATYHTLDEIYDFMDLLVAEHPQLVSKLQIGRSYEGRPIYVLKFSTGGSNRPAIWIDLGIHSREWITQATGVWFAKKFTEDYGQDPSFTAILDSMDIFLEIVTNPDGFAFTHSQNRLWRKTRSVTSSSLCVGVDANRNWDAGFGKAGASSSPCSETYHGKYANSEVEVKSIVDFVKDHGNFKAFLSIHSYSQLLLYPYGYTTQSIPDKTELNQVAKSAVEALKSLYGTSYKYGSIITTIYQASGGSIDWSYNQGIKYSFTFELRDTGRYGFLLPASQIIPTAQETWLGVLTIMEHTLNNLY

[2] = test system: Spontaneously Hypertensive Rats; test: Systolic blood pressure of SHR fed epigallocatechin gallate in the diet (FIG. 4); type: in vivo; settings: 8 weeks old, 0.5% in diet, after seven weeks feeding, control continued to rise
Source text: Three SHR (Spontaneously Hypertensive Rats) of 8 weeks old were fed on the diet which consisted of 99.5% of normal diet and 0.5% of epigallocatechin gallate mixed together. As a control two SHR of the same stock were fed on a 100% normal diet. After seven weeks feeding the blood pressure of tea polyphenol fed group levelled off while the blood pressure of the control group continued to rise. In FIG. 4, the curve A denotes the systolic blood pressure of control group while B denotes the systolic blood pressure of test group.

[3] = Acute oral toxicity in mice (LD50); settings: mouse, in vivo, male ICR mice, 8 weeks old, read-out: LD50 of one week
[4] = ACE from renal cortex of pig, Hip-His-Leu substrate, 37° C.

O=C(O[C@@H]1Cc2c(O)cc(O)cc2O[C@@H]1c1cc(O)c(O)c(O)c1)c1cc(O)c(O)c(O)c1 [(-)-Epigallocatechin gallate, (-)-epigallocatechin gallate]
IC50 [1]: 90 µM
IC50 (carboxypeptidase A): 3000 µM
blood pressure (in words) [2]: levelled off
LD50 at 168 h [3]: 2310 mg/kg

O=c1c(O)cc([C@H]2Oc3cc(O)cc(O)c3C[C@H]2O)cc2c([C@H]3Oc4cc(O)cc(O)c4C[C@H]3O)cc(O)c(O)c12 [Free theaflavin, free theaflavin]
IC50 [1, 4]: 400 µM
IC50 (carboxypeptidase A): > 5000 µM

O=C(O[C@@H]1Cc2c(O)cc(O)cc2O[C@@H]1c1cc(O)c(O)c2c(=O)c(O)cc([C@H]3Oc4cc(O)cc(O)c4C[C@H]3O)cc12)c1cc(O)c(O)c(O)c1 [Theaflavin monogallate B, theaflavin monogallate B]
IC50 [1, 4]: 110 µM
IC50 (carboxypeptidase A): > 5000 µM

O=C(O[C@@H]1Cc2c(O)cc(O)cc2O[C@@H]1c1cc(O)c(=O)c2c(O)c(O)cc([C@H]3Oc4cc(O)cc(O)c4C[C@H]3O)c2c1)c1cc(O)c(O)c(O)c1 [Theaflavin monogallate A, theaflavin monogallate A]
IC50 [1, 4]: 115 µM
IC50 (carboxypeptidase A): > 5000 µM
